Tests used:
Rattus norvegicus [1] = assay: Serum creatinine concentration measured after intraperitoneal administration of 1 mg/kg of compound to rats(vehicle 5.07+/-0.33); format: functional
Rattus norvegicus [2] = assay: Effect on urinary excretion potassium and sodium after oral administration of 25 mg/kg to rats(potassium and sodium excretion in control rat is 0.130+/-0.009); format: functional, Urine
Rattus norvegicus [3] = assay: Urea nitrogen concentration measured after intraperitoneal administration of 1 mg/kg of compound to rats(vehicle 195.8+/-14.4); format: functional
Rattus norvegicus [4] = assay: Ratio of urinary excretion value (urinary volume) in treated rats to that in control rats, at a peroral dose of 25 mg/Kg; format: functional, Urine
Rattus norvegicus [5] = assay: Ratio of urinary excretion value (Na+ concentration) in treated rats to that in control rats, at a peroral dose of 25 mg/Kg; format: functional, Urine
Rattus norvegicus [6] = assay: Oral diuretic activity was measured after oral administration of 25 mg/kg to rats(control volume is 0.94+/-0.04); format: functional, Urine
Rattus norvegicus [7] = assay: Percent inhibition of Urea nitrogen by the compound given as ratio of UN value in treated to vehicle treated ones after intraperitoneal administration of 1 mg/kg of compound to rats(vehicle 195.8+/-14.4); format: functional; details: Rattus norvegicus, ip
Adenosine receptor A1 = biological target: T1, Adenosine receptor A1 (Cavia porcellus, UniProt P47745)
T1 sequence (P47745 whole entry): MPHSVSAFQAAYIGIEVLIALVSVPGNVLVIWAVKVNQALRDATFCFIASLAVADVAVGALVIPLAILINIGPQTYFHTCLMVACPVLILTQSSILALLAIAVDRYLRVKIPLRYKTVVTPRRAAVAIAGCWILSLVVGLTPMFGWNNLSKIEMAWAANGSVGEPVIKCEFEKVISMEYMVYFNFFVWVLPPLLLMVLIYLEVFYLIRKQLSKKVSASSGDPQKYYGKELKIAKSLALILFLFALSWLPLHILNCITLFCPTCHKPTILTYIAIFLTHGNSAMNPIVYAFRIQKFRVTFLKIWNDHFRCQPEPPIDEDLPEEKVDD
Description: Binding affinity against adenosine A1 receptor in guinea pig forebrain membranes using N6-[3H]cyclohexyladenosine as radioligand

Adenosine A2 receptor = Adenosine A2 receptor (Rattus norvegicus, UniProt P29276+P30543)
Rattus norvegicus [8] = species: Rattus norvegicus; assay: animal or person; details: ip, read-out: Inhibition, dose 1 mg/kg, route intraperitoneal
Rattus norvegicus [9] = assay: Serum creatinine concentration measured after intraperitoneal administration of 10 mg/kg of compound to rats(vehicle 5.43+/-0.11); format: functional
Rattus norvegicus [10] = assay: Effect on urinary excretion potassium and sodium after oral administration of 1.6 mg/kg to rats(potassium and sodium excretion in control rat is 0.079+/-0.007); format: functional, Urine
Rattus norvegicus [11] = assay: Effect on urinary excretion potassium and sodium after oral administration of 25 mg/kg to rats(potassium and sodium excretion in control rat is 0.193+/-0.016); format: functional, Urine
Rattus norvegicus [12] = assay: Ratio of urinary excretion value (urinary volume) in treated rats to that in control rats, at a peroral dose of 1.6 mg/Kg; format: functional, Urine
Rattus norvegicus [13] = assay: Ratio of sodium ion/potassium ion concentration in treated rats to that in control rats, at a peroral dose of 1.6 mg/Kg; format: functional
Rattus norvegicus [14] = assay: Ratio of sodium ion/potassium ion concentration in treated rats to that in control rats, at a peroral dose of 25 mg/Kg; format: functional
Rattus norvegicus [15] = assay: Ratio of urinary excretion value (Na+ concentration) in treated rats to that in control rats, at a peroral dose of 1.6 mg/Kg; format: functional, Urine
Rattus norvegicus [16] = assay: Ratio of urinary excretion value (Na+ concentration) in treated rats to that in control rats, at a peroral dose of 6.25 mg/Kg; format: functional, Urine
Rattus norvegicus [17] = assay: Percent inhibition of serum creatinine by the compound given as ratio of Cr value in treated to vehicle treated ones after intraperitoneal administration of 10 mg/kg of compound to rats(vehicle 182.5+/-3.4); format: functional; details: ip
Rattus norvegicus [18] = assay: Urea nitrogen concentration measured after intraperitoneal administration of 10 mg/kg of compound to rats(vehicle 182.5+/-3.4); format: functional
Rattus norvegicus [19] = assay: Oral diuretic activity was measured after oral administration of 1.6 mg/kg to rats(control volume is 0.69+/-0.03); format: functional, Urine
Rattus norvegicus [20] = assay: Oral diuretic activity was measured after oral administration of 25 mg/kg to rats(control volume is 0.91+/-0.08); format: functional, Urine
Rattus norvegicus [21] = assay: Percent inhibition of Urea nitrogen by the compound given as ratio of UN value in treated to vehicle treated ones after intraperitoneal administration of 10 mg/kg of compound to rats(vehicle 182.5+/-3.4); format: functional; details: ip
Rattus norvegicus [22] = assay: Ratio of urinary excretion value (urinary volume) in treated rats to that in control rats, at a peroral dose of 6.25 mg/Kg; format: functional, Urine
Rattus norvegicus [23] = assay: Serum creatinine concentration measured after intraperitoneal administration of 1 mg/kg of compound to rats(vehicle 3.86+/-0.27); format: functional
Rattus norvegicus [24] = assay: Serum creatinine concentration measured after intraperitoneal administration of 10 mg/kg of compound to rats(vehicle 3.94+/-0.24); format: functional
Rattus norvegicus [25] = assay: Effect on urinary excretion potassium and sodium after oral administration of 25 mg/kg to rats(potassium and sodium excretion in control rat is 0.134+/-0.004); format: functional, Urine
Rattus norvegicus [26] = assay: Urea nitrogen concentration measured after intraperitoneal administration of 1 mg/kg of compound to rats(vehicle 178+/-11.3); format: functional
Rattus norvegicus [27] = assay: Oral diuretic activity was measured after oral administration of 25 mg/kg to rats(control volume is 0.80+/-0.04); format: functional, Urine
Rattus norvegicus [28] = assay: Effect on urinary excretion potassium and sodium after oral administration of 1.6 mg/kg to rats(potassium and sodium excretion in control rat is 0.261+/-0.008); format: functional, Urine
Rattus norvegicus [29] = assay: Percent inhibition of serum creatinine by the compound given as ratio of Cr value in treated to vehicle treated ones after intraperitoneal administration of 1 mg/kg of compound to rats(vehicle 3.86+/-0.27); format: functional; details: ip
Rattus norvegicus [30] = assay: Percent inhibition of serum creatinine by the compound given as ratio of Cr value in treated to vehicle treated ones fter intraperitoneal administration of 10 mg/kg of compound to rats(vehicle 3.94+/-0.24); format: functional; details: ip
Rattus norvegicus [31] = assay: Urea nitrogen concentration measured after intraperitoneal administration of 10 mg/kg of compound to rats(vehicle 141.3+/-6.6); format: functional
Rattus norvegicus [32] = assay: Oral diuretic activity was measured after oral administration of 1.6 mg/kg to rats(control volume is […]+/-[…]); format: functional, Urine
Rattus norvegicus [33] = assay: Percent inhibition of Urea nitrogen by the compound given as ratio of UN value in treated to vehicle treated ones fter intraperitoneal administration of 10 mg/kg of compound to rats(vehicle 141.3+/-6.6); format: functional; details: ip
Rattus norvegicus [34] = assay: Percent inhibition of Urea nitrogen by the compound given as ratio of UN value in treated to vehicle treated ones after intraperitoneal administration of 1 mg/kg of compound to rats(vehicle 178+/-11.3); format: functional; details: ip
Rattus norvegicus [35] = assay: Serum creatinine concentration measured after intraperitoneal administration of 1 mg/kg of compound to rats(vehicle 2.89+/-0.42); format: functional
Rattus norvegicus [36] = assay: Serum creatinine concentration measured after intraperitoneal administration of 1 mg/kg of compound to rats(vehicle 3.91+/-0.37); format: functional
Rattus norvegicus [37] = assay: Effect on urinary excretion potassium and sodium after oral administration of 0.4 mg/kg to rats(potassium and sodium excretion in control rat is 0.191+/-0.021); format: functional, Urine
Rattus norvegicus [38] = assay: Urea nitrogen concentration measured after intraperitoneal administration of 1 mg/kg of compound to rats(vehicle 128.9+/-9.3); format: functional
Rattus norvegicus [39] = assay: Ratio of urinary excretion value (urinary volume) in treated rats to that in control rats, at a peroral dose of 0.4 mg/Kg; format: functional, Urine
Rattus norvegicus [40] = assay: Percent inhibition of serum creatinine by the compound given as ratio of Cr value in treated to vehicle treated ones after intraperitoneal administration of 1 mg/kg of compound to rats(vehicle 2.89+/-0.42); format: functional; details: ip
Rattus norvegicus [41] = assay: Ratio of sodium ion/potassium ion concentration in treated rats to that in control rats, at a peroral dose of 0.4 mg/Kg; format: functional
Rattus norvegicus [42] = assay: Ratio of urinary excretion value (Na+ concentration) in treated rats to that in control rats, at a peroral dose of 0.4 mg/Kg; format: functional, Urine
Rattus norvegicus [43] = assay: Effect on urinary excretion potassium and sodium after oral administration of 1.6 mg/kg to rats(potassium and sodium excretion in control rat is 0.183+/-0.012); format: functional, Urine
Rattus norvegicus [44] = assay: Percent inhibition of serum creatinine by the compound given as ratio of Cr value in treated to vehicle treated ones after intraperitoneal administration of 1 mg/kg of compound to rats(vehicle 3.91+/-0.37); format: functional; details: ip
Rattus norvegicus [45] = assay: Urea nitrogen concentration measured after intraperitoneal administration of 1 mg/kg of compound to rats(vehicle 107.7+/-15.2); format: functional
Rattus norvegicus [46] = assay: Oral diuretic activity was measured after oral administration of 0.4 mg/kg to rats(control volume is 0.99+/-0.07); format: functional, Urine
Rattus norvegicus [47] = assay: Oral diuretic activity was measured after oral administration of 1.6 mg/kg to rats(control volume is 0.82+/-0.05); format: functional, Urine
Rattus norvegicus [48] = assay: Percent inhibition of Urea nitrogen by the compound given as ratio of UN value in treated to vehicle treated ones after intraperitoneal administration of 1 mg/kg of compound to rats(vehicle 107.7+/-15.2); format: functional; details: ip
Rattus norvegicus [49] = assay: Percent inhibition of Urea nitrogen by the compound given as ratio of UN value in treated to vehicle treated ones after intraperitoneal administration of 1 mg/kg of compound to rats(vehicle 128.9+/-9.3); format: functional; details: ip

CCCn1c(=O)c2nc(C3CC4C=CC3C4)[nH]c2n(CCC)c1=O (stereo in doubt; 18)
Cr (Rattus norvegicus [1]): 2.23 mg/dL | Na (Rattus norvegicus [2]): 0.271 m equiv 6hr-1 100g-1 | UN (Rattus norvegicus [3]): 92.7 mg/dL | T/C (Rattus norvegicus [4]): 1.87 | T/C (Rattus norvegicus [5]): 2.09 | Urine volume (Rattus norvegicus [6]): 1.75 ml 6hr-1 100g-1 | inhibition in vivo at 1 mg/kg (Rattus norvegicus [7]): 53% | Ki (Adenosine receptor A1): 3.4 nM | Ki (Adenosine A2 receptor): 0.21 µM | inhibition in vivo at 1 mg/kg (Rattus norvegicus [8]): 56%

Cn1c(=O)c2nc[nH]c2n(C)c1=O.O [THEOPHYLLINE]
Cr (Rattus norvegicus [9]): 5.32 mg/dL | Na (Rattus norvegicus [10]): 0.09 m equiv 6hr-1 100g-1 | Na (Rattus norvegicus [11]): 0.417 m equiv 6hr-1 100g-1 | T/C (Rattus norvegicus [12]): 1.03 | T/C (Rattus norvegicus [4]): 1.34 | Na+/K+ (Rattus norvegicus [13]): 1.06 | Na+/K+ (Rattus norvegicus [14]): 1.08 | T/C (Rattus norvegicus [15]): 1.14 | T/C (Rattus norvegicus [5]): 2.16 | T/C (Rattus norvegicus [16]): 1.52 | inhibition in vivo at 10 mg/kg (Rattus norvegicus [17]): 2% | UN (Rattus norvegicus [18]): 174 mg/dL | Urine volume (Rattus norvegicus [19]): 0.71 ml 6hr-1 100g-1 | Urine volume (Rattus norvegicus [20]): 1.22 ml 6hr-1 100g-1 | inhibition in vivo at 10 mg/kg (Rattus norvegicus [21]): 5% | T/C (Rattus norvegicus [22]): 1.42

Cn1c(=O)c2nc(-c3ccccc3)[nH]c2n(C)c1=O [8-PHENYL THEOPHYLLINE]
Cr (Rattus norvegicus [23]): 3.14 mg/dL | Cr (Rattus norvegicus [24]): 1.74 mg/dL | Na (Rattus norvegicus [25]): 0.201 m equiv 6hr-1 100g-1 | UN (Rattus norvegicus [26]): 148.3 mg/dL | Urine volume (Rattus norvegicus [27]): 1.1 ml 6hr-1 100g-1 | T/C (Rattus norvegicus [12]): 0.63 | T/C (Rattus norvegicus [4]): 1.38 | Na+/K+ (Rattus norvegicus [13]): 0.87 | Na+/K+ (Rattus norvegicus [14]): 1.39 | Na (Rattus norvegicus [28]): 0.175 m equiv 6hr-1 100g-1 | T/C (Rattus norvegicus [15]): 0.87 | T/C (Rattus norvegicus [5]): 1.39 | T/C (Rattus norvegicus [16]): 1.54 | inhibition in vivo at 1 mg/kg (Rattus norvegicus [29]): 19% | inhibition in vivo at 10 mg/kg (Rattus norvegicus [30]): 56% | UN (Rattus norvegicus [31]): 62.4 mg/dL | Urine volume (Rattus norvegicus [32]): 0.88 ml 6hr-1 100g-1 | inhibition in vivo at 10 mg/kg (Rattus norvegicus [33]): 56% | inhibition in vivo at 1 mg/kg (Rattus norvegicus [34]): 17% | T/C (Rattus norvegicus [22]): 1.79 | Ki (Adenosine receptor A1): 1600 nM | Ki (Adenosine A2 receptor): 2.3 µM

CCCn1c(=O)c2c(nc(C(C3CC3)C3CC3)n2C)n(CCC)c1=O
Cr (Rattus norvegicus [35]): 1.63 mg/dL | Cr (Rattus norvegicus [36]): 4.49 mg/dL | Na (Rattus norvegicus [37]): 0.174 m equiv 6hr-1 100g-1 | UN (Rattus norvegicus [38]): 136.5 mg/dL | T/C (Rattus norvegicus [39]): 0.97 | T/C (Rattus norvegicus [12]): 1.8 | inhibition in vivo at 1 mg/kg (Rattus norvegicus [40]): 44% | Na+/K+ (Rattus norvegicus [41]): 0.94 | Na+/K+ (Rattus norvegicus [13]): 1.21 | T/C (Rattus norvegicus [42]): 0.91 | T/C (Rattus norvegicus [15]): 1.48 | T/C (Rattus norvegicus [16]): 2.14 | Na (Rattus norvegicus [43]): 0.271 m equiv 6hr-1 100g-1 | inhibition in vivo at 1 mg/kg (Rattus norvegicus [44]): -15% | UN (Rattus norvegicus [45]): 54.1 mg/dL | Urine volume (Rattus norvegicus [46]): 0.96 ml 6hr-1 100g-1 | Urine volume (Rattus norvegicus [47]): 1.48 ml 6hr-1 100g-1 | inhibition in vivo at 1 mg/kg (Rattus norvegicus [48]): 50% | inhibition in vivo at 1 mg/kg (Rattus norvegicus [49]): 6% | T/C (Rattus norvegicus [22]): 1.78 | Ki (Adenosine A2 receptor): 29 µM
